Assay: physchem
Details: octanol/water
Description: Lipophilicity, log P of the compound

Row | Compound | logP
1 | C[C@]12CC[C@H]3[C@@H](CCC4=CC(=O)CC[C@@]43C)[C@@H]1CC[C@@H]2OC(=O)C(F)Cl (stereo partly drawn) | 4.7
2 | C[C@H]1C[C@@H]2[C@H](CC[C@@]3(C)[C@H]2CC[C@]3(C)O)[C@@]2(C)CCC(=O)C=C12 | 4.24
3 | CC(=O)O[C@H]1CC[C@H]2[C@@H]3CC[C@H]4C[C@H]5[C@@H](C[C@]4(C)[C@H]3CC[C@]12C)C5(F)F | 4.77
4 | CCOC1(O[C@H]2CC[C@H]3[C@@H]4CC[C@H]5CC(=O)CC[C@]5(C)[C@H]4CC[C@]23C)CCCC1 | 6.02
5 | C[C@]12CCC(=O)C=C1CC[C@@H]1[C@@H]2CC[C@@]2(C)[C@H]1CC[C@]2(C)O [METHYLTESTOSTERONE] | 3.91
6 | CC(=O)O[C@H]1CC[C@H]2[C@@H]3CCC4=C(O)C(=O)CC[C@]4(C)[C@H]3CC[C@]12C | 3.06
7 | CC(=O)O[C@H]1CC[C@H]2[C@@H]3CCC4=C(Cl)C(=O)CC[C@]4(C)[C@H]3CC[C@]12C | 3.87
8 | CCCO[C@@]1(C)CC[C@H]2[C@@H]3C[C@H](C)[C@H]4CC(=O)[C@H](C)C[C@]4(C)[C@H]3CC[C@@]21C | 5.99
9 | C[C@]12CC/C(=N/NC(N)=O)C[C@@H]1CC[C@@H]1[C@@H]2CC[C@]2(C)[C@@H](O)CC[C@@H]12 | 3.45
10 | C[C@]12CCC(=O)C=C1CC[C@@H]1[C@@H]2[C@@H](O)C[C@@]2(C)[C@H]1CC[C@]2(C)O | 2.93
11 | C[C@]12CCC(=O)C=C1CC[C@@H]1[C@@H]2C(=O)C[C@]2(C)C(=O)CC[C@@H]12 [ADRENOTERONE] | 3.75
12 | COC[C@@H]1C[C@@]2(C)[C@@H](CC[C@@H]3[C@@H]2CC[C@]2(C)[C@@H](O)CC[C@@H]32)CC1=O | 3.77
13 | C[C@]12CC[C@H]3[C@@H](CCC4=CC(=O)CC[C@@]43C)[C@@H]1CC[C@@H]2O [TESTOSTERONE] | 2.53
14 | C[C@]12C[C@H](O)CC[C@@H]1CC[C@@H]1[C@@H]2CC[C@@]2(C)[C@H]1CC[C@]2(C)O | 3.8
15 | C[C@@H]1CC2=CC(=O)CC[C@]2(C)[C@H]2CC[C@]3(C)C(=O)CC[C@H]3[C@H]12 | 4.69
16 | C[C@H]1C[C@@H]2[C@H](CC[C@]3(C)[C@@H](O)CC[C@@H]23)[C@@]2(C)CCC(=O)C[C@H]12 | 4.26
17 | C[C@]12CCC(=O)C[C@@H]1CC[C@@H]1[C@@H]2CC[C@@]2(C)[C@H]1CC[C@]2(C)O [MESTANOLONE] | 4.01
18 | C[C@]12CC[C@H]3[C@@H](C[C@@H](F)C4=CC(=O)CC[C@@]43C)[C@@H]1CC[C@@H]2O | 3.53
19 | COC1(O[C@H]2CC[C@H]3[C@@H]4CC[C@H]5CC(=O)CC[C@]5(C)[C@H]4CC[C@]23C)CCCC1 | 5.68
20 | C[C@]12C[C@@H]3O[C@@H]3C[C@@H]1CC[C@@H]1[C@@H]2CC[C@]2(C)[C@@H](O)CC[C@@H]12 | 4.5
21 | C[C@]12C[C@H](O)[C@H]3[C@@H](CCC4=CC(=O)CC[C@@]43C)[C@@H]1CC[C@@H]2O | 2.85
22 | CC1=C[C@@]2(C)C(=CC1=O)C=C[C@@H]1[C@@H]2CC[C@@]2(C)[C@H]1CC[C@]2(C)O | 4.01

Row | Compound | logP
23 | C[C@]12CCC(=O)C[C@@H]1CC[C@H]1C3=CC[C@H](O)[C@@]3(C)CC[C@@H]12 | 3.5
24 | C[C@@H]1C[C@@]2(C)[C@@H](CC[C@@H]3[C@@H]2CC[C@]2(C)[C@@H](O)CC[C@@H]32)CC1=O [DROMOSTANOLONE] | 4.5
25 | C[C@]12CC[C@H]3[C@@H](CCC4=CC(=O)[C@H](F)C[C@@]43C)[C@@H]1CC[C@@H]2O | 3.86
26 | CC(=O)O[C@H]1CC[C@H]2[C@@H]3CC[C@H]4C[C@@H]5[C@H](C[C@]4(C)[C@H]3CC[C@]12C)C5(F)F | 4.77
27 | CC(=O)O[C@H]1CC[C@H]2[C@@H]3CCC4=C(Cl)C(=O)CC[C@]4(C)[C@H]3[C@@H](O)C[C@]12C | 2.88
28 | C[C@]12C[C@H]3O[C@H]3C[C@@H]1CC[C@@H]1[C@@H]2CC[C@]2(C)[C@@H](O)CC[C@@H]12 | 3.5
29 | CN(C)CCN/C=C1\C[C@@]2(C)[C@@H](CC[C@@H]3[C@@H]2CC[C@@]2(C)[C@H]3CC[C@]2(C)O)CC1=O | 2.53
30 | C[C@]12C/C(=C\N)C(=O)C[C@@H]1CC[C@@H]1[C@@H]2CC[C@@]2(C)[C@H]1CC[C@]2(C)O | 2.8
31 | CCCO[C@@]1(C)CC[C@H]2[C@@H]3CC[C@H]4CC(=O)[C@H](C)C[C@]4(C)[C@H]3CC[C@@]21C | 5.66
32 | C[C@@H]1C[C@@H]2[C@H](CC[C@]3(C)[C@@H](O)CC[C@@H]23)[C@@]2(C)CCC(=O)C[C@H]12 | 4.26
33 | C[C@@H]1C[C@]2(C)C3=CC[C@@]4(C)C(CC[C@]4(C)O)[C@@H]3CC[C@H]2CC1=O (stereo partly drawn) | 4.14
34 | C[C@@H]1CC2=CC(=O)CC[C@]2(C)[C@H]2CC[C@@]3(C)[C@@H](CC[C@]3(C)O)[C@H]12 [BOLASTERONE] | 4.24
35 | C[C@H]1C/C(=N\O)C[C@@H]2CC[C@@H]3[C@H](CC[C@@]4(C)[C@H]3CC[C@]4(C)O)[C@]21C | 5
36 | CC(=O)O[C@H]1CC[C@H]2[C@@H]3CCC4=CC(=O)CC[C@]4(C)[C@H]3CC[C@]12C | 4.2
37 | C[C@]12CC[C@@H](O)C[C@@H]1CC[C@@H]1[C@@H]2CC[C@]2(C)[C@@H](O)CC[C@@H]12 [ANDROSTANDIOL] | 5.49
38 | C[C@]12CC[C@H]3[C@@H](CCC4=CC(=O)CC[C@@]43C)[C@@H]1CC[C@@H]2O[Si](C)(C)C | 3.95
39 | C[C@@H]1CC2=CC(=O)CC[C@]2(C)[C@H]2CC[C@]3(C)[C@@H](O)CC[C@H]3[C@H]12 | 4.17
40 | C[C@]12C[C@@H](F)C(=O)C[C@@H]1CC[C@@H]1[C@@H]2CC[C@]2(C)[C@@H](O)CC[C@@H]12 | 3.96
41 | C[C@]12CC[C@H]3[C@@H](CCC4=CC(=O)CC[C@@]43C)[C@@H]1CC[C@@H]2OC(=O)C(Cl)Cl | 5.04
42 | C[C@H]1C[C@@H]2[C@H](CC[C@@]3(C)[C@H]2CC[C@]3(C)O)[C@@]2(C)CCC(=O)C[C@H]12 | 4.34
43 | C[C@]12C[C@@H]3[C@H](C[C@@H]1CC[C@@H]1[C@@H]2CC[C@@]2(C)[C@H]1CC[C@]2(C)O)C3(F)F | 4.72

— ChEMBL document CHEMBL1150772, “Chemometric and chemoinformatic analyses of anabolic and androgenic activities of testosterone and dihydrotestosterone analogues” (Bioorg Med Chem, 2008)
